# PubChem BioAssay (NCI)
#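 Step 1: Grow cells in 96-well plates. Step 2: Expose to compound for 48 hours at 5 concentrations. Step 3: Interpolate endpoints linearly; if unreached, use highest concentration. TGI: total growth inhibition.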
# What was measured:
# Assay in all cases: NCI tumour cell line growth inhibition, 48 h
# [1] = system: U251 CNS
# [2] = system: HCT-116 colon
# [3] = system: MALME-3M melanoma
# [4] = system: KM12 colon
# [5] = system: M14 melanoma
# [6] = system: SF-539 CNS
# [7] = system: UACC-62 melanoma
# [8] = system: NCI-H460 lung
# [9] = system: MDA-MB-435
# [10] = system: HL-60(TB) leukemia
# [11] = system: MDA-N
# [12] = system: SN12C renal
# [13] = system: OVCAR-3 ovarian
# [14] = system: DU-145 prostate
# [15] = system: PC-3 prostate
# [16] = system: A498 renal
# [17] = system: COLO 205 colon
# [18] = system: MOLT-4 leukemia
# [19] = system: SK-MEL-2 melanoma
# [20] = system: SF-295 CNS
# [21] = system: T-47D breast
# [22] = system: SK-OV-3 ovarian
# [23] = system: RPMI-8226 leukemia
# [24] = system: OVCAR-8 ovarian
# [25] = system: TK-10 renal
# [26] = system: SNB-75 CNS
# [27] = system: HCC-2998 colon
# [28] = system: SR leukemia
# [29] = system: A549 NSCLC
# [30] = system: EKVX NSCLC
# [31] = system: K-562 leukemia
# [32] = system: CAKI-1 renal
# [33] = system: NCI/ADR-RES ovarian
# [34] = system: UACC-257 melanoma
# [35] = system: NCI-H226 lung
# [36] = system: HOP-92 NSCLC
# [37] = system: HS 578T breast
# [38] = system: SF-268 CNS
# [39] = system: HT29 colon
# [40] = system: NCI-H23 lung
# [41] = system: IGROV1 ovarian
# [42] = system: HOP-62 NSCLC
# [43] = system: OVCAR-5 ovarian
# [44] = system: CCRF-CEM leukemia
# [45] = system: ACHN renal
# [46] = system: SK-MEL-28 melanoma
# [47] = system: RXF 393 renal
# [48] = system: SNB-19 CNS
# [49] = system: LOX IMVI melanoma
# [50] = system: NCI-H522 lung
# [51] = system: SW-620 colon
# [52] = system: UO-31 renal
# [53] = system: MCF7 breast
# [54] = system: SK-MEL-5 melanoma
# [55] = system: HCT-15 colon
# [56] = system: MDA-MB-231 breast
# [57] = system: OVCAR-4 ovarian
# [58] = system: 786-0 renal
# [59] = system: BT-549 breast
smiles,measurement,setting,value
O=C(CN1CCN(Cc2ccccc2)CC1)c1ccc2[nH]c(=O)oc2c1,TGI,[1],> 100 µM
same,TGI,[2],> 100 µM
same,TGI,[3],51.2 µM
same,TGI,[4],> 100 µM
same,TGI,[5],> 100 µM
same,TGI,[6],> 100 µM
same,TGI,[7],> 100 µM
same,TGI,[8],> 100 µM
same,TGI,[9],> 100 µM
same,TGI,[10],> 100 µM
same,TGI,[11],> 100 µM
same,TGI,[12],> 100 µM
same,TGI,[13],> 100 µM
same,TGI,[14],> 100 µM
same,TGI,[15],> 100 µM
same,TGI,[16],> 100 µM
same,TGI,[17],> 100 µM
same,TGI,[18],> 100 µM
same,TGI,[19],> 100 µM
same,TGI,[20],> 100 µM
same,TGI,[21],> 100 µM
same,TGI,[22],> 100 µM
same,TGI,[23],> 100 µM
same,TGI,[24],> 100 µM
same,TGI,[25],> 100 µM
same,TGI,[26],> 100 µM
same,TGI,[27],> 100 µM
same,TGI,[28],> 100 µM
same,TGI,[29],> 100 µM
same,TGI,[30],> 100 µM
same,TGI,[31],> 100 µM
same,TGI,[32],> 100 µM
same,TGI,[33],> 100 µM
same,TGI,[34],> 100 µM
same,TGI,[35],> 100 µM
same,TGI,[36],> 100 µM
same,TGI,[37],> 100 µM
same,TGI,[38],> 100 µM
same,TGI,[39],> 100 µM
same,TGI,[40],> 100 µM
same,TGI,[41],> 100 µM
same,TGI,[42],> 100 µM
same,TGI,[43],> 100 µM
same,TGI,[44],> 100 µM
same,TGI,[45],> 100 µM
same,TGI,[46],> 100 µM
same,TGI,[47],> 100 µM
same,TGI,[48],> 100 µM
same,TGI,[49],> 100 µM
same,TGI,[50],> 100 µM
same,TGI,[51],> 100 µM
same,TGI,[52],> 100 µM
same,TGI,[53],> 100 µM
same,TGI,[54],> 100 µM
same,TGI,[55],> 100 µM
same,TGI,[56],> 100 µM
same,TGI,[57],> 100 µM
same,TGI,[58],> 100 µM
same,TGI,[59],> 100 µM
CN(C)c1ccc(/C=c2/c3ccccc3n3c2c2ccccc2[n+]3C)cc1,TGI,[1],1.46 µM
same,TGI,[2],2.74 µM
same,TGI,[3],1.47 µM
same,TGI,[4],10.7 µM
same,TGI,[5],1.69 µM
same,TGI,[6],3.12 µM
same,TGI,[7],0.998 µM
same,TGI,[8],> 38.2 µM
same,TGI,[9],1.87 µM
same,TGI,[10],0.428 µM
same,TGI,[11],1.89 µM
same,TGI,[12],2.55 µM
same,TGI,[13],4.42 µM
same,TGI,[14],4.19 µM
same,TGI,[15],1.54 µM
same,TGI,[16],5.14 µM
same,TGI,[17],0.488 µM
same,TGI,[18],2.67 µM
same,TGI,[19],0.782 µM
same,TGI,[20],13.1 µM
same,TGI,[21],1.51 µM
same,TGI,[22],14 µM
same,TGI,[23],0.581 µM
same,TGI,[24],2.34 µM
same,TGI,[25],3.36 µM
same,TGI,[26],8.29 µM
same,TGI,[27],3.33 µM
same,TGI,[28],1.98 µM
same,TGI,[29],19.7 µM
same,TGI,[30],23.5 µM
same,TGI,[31],4.71 µM
same,TGI,[32],8.53 µM
same,TGI,[33],32.8 µM
same,TGI,[34],1.51 µM
same,TGI,[35],15.3 µM
same,TGI,[36],1.92 µM
same,TGI,[37],4.42 µM
same,TGI,[38],1.98 µM
same,TGI,[40],3.45 µM
same,TGI,[41],2.27 µM
same,TGI,[42],16.2 µM
same,TGI,[43],7.43 µM
same,TGI,[44],1.23 µM
same,TGI,[45],2.88 µM
same,TGI,[46],2.08 µM
same,TGI,[47],4.47 µM
same,TGI,[48],4.76 µM
same,TGI,[49],1.98 µM
same,TGI,[50],0.619 µM
same,TGI,[51],1.61 µM
same,TGI,[52],3.9 µM
same,TGI,[53],5.46 µM
same,TGI,[54],0.659 µM
same,TGI,[55],2.41 µM
same,TGI,[56],2.42 µM
same,TGI,[57],8.3 µM
same,TGI,[58],1.69 µM
same,TGI,[59],1.03 µM
